# Biological target: Replicase polyprotein 1ab (Severe acute respiratory syndrome coronavirus 2) (UniProt P0DTD1)
# Description: Functional biochemical assay to identify treatments for viral infectious disease that targets SARS-COV-2 nsp3 macrodomain, whereby the mechanism of action displaces an ADP-Ribose modified peptide from the binding site. Utilizing a time-resolved fluorescence method to measure binding by reading the emitted fluorescence intensity in two wavelengths.
structure (smiles),measurement,setting,value
O=C(c1ncc[nH]1)N1CCC(c2ccn3ncc(C(=O)N4CCCCC4)c3c2)CC1,inhibition,"Concentration 49.75 uM, Number of replicates 2.0, Standard deviation 1.065 %",18.5%
same,inhibition,"Concentration 99.5 uM, Number of replicates 2.0, Standard deviation 3.121 %",37.2%
O=S(=O)(NC[C@H]1CCOC1)c1cn2c(n1)CCCC2,inhibition,"Concentration 50.0 uM, Number of replicates 2.0, Standard deviation 7.062 %",-3.2%
Cn1nc(NC(=O)c2cc3nccn3c(=O)[nH]2)c2nccnc21,inhibition,"Concentration 50.0 uM, Number of replicates 2.0, Standard deviation 4.143 %",-1.91%
O=C(O)c1sccc1C(=O)N1CCC(c2ccn3ncc(C(=O)N4CCCCC4)c3c2)CC1,inhibition,"Concentration 49.75 uM, Number of replicates 2.0, Standard deviation 1.624 %",55.5%
same,inhibition,"Concentration 99.5 uM, Number of replicates 2.0, Standard deviation 1.425 %",71.5%
CC(C)n1cc(S(=O)(=O)Nc2cnc3[nH]ncc3c2)cn1,inhibition,"Concentration 50.0 uM, Number of replicates 4.0, Standard deviation 3.956 %",1.55%
CN(C(=O)c1ccc(NC(=O)Nc2ccccc2)cc1)[C@@H]1CN2CCC1CC2,inhibition,"Concentration 49.75 uM, Number of replicates 2.0, Standard deviation 0.826 %",-4.01%
same,inhibition,"Concentration 99.5 uM, Number of replicates 2.0, Standard deviation 1.597 %",2.77%
C[C@H](NC(=O)c1cnn2ccc(C3CCN(C(=O)c4ccccc4)CC3)cc12)c1cccnc1,inhibition,"Concentration 49.75 uM, Number of replicates 2.0, Standard deviation 2.207 %",-1.84%
same,inhibition,"Concentration 99.5 uM, Number of replicates 2.0, Standard deviation 1.542 %",-6.21%
CC1OCCC1(O)CNC(=O)c1ncnc2[nH]ccc12 (stereo unspecified),inhibition,"Concentration 50.0 uM, Number of replicates 2.0, Standard deviation 4.016 %",1.86%
NS(=O)(=O)c1ccccc1CNc1ncnc2[nH]ccc12,inhibition,"Concentration 50.0 uM, Number of replicates 2.0, Standard deviation 10.219 %",3.66%
O=C(Nc1ccccc1)Nc1ccc(C(=O)Nc2ncccc2F)cc1,inhibition,"Concentration 49.75 uM, Number of replicates 2.0, Standard deviation 1.252 %",4.59%
same,inhibition,"Concentration 99.5 uM, Number of replicates 2.0, Standard deviation 5.725 %",10.2%
OC[C@@H]1CN(c2ncnc3nc[nH]c23)CCC1(F)F,inhibition,"Concentration 50.0 uM, Number of replicates 2.0, Standard deviation 0.855 %",1.75%
C[C@@H](NC(=O)c1ncnc2[nH]ccc12)c1ncc(C(=O)O)c(=O)[nH]1,inhibition,"Concentration 49.75 uM, Number of replicates 2.0, Standard deviation 2.226 %",4.87%
same,inhibition,"Concentration 99.5 uM, Number of replicates 2.0, Standard deviation 1.623 %",10.7%
O=C1CC[C@@H](CNC(=O)c2cnn3ccc(C4CCN(C(=O)c5ccccc5)CC4)cc23)N1,inhibition,"Concentration 49.75 uM, Number of replicates 2.0, Standard deviation 1.276 %",-2.32%
same,inhibition,"Concentration 99.5 uM, Number of replicates 2.0, Standard deviation 4.674 %",-1.47%
CCO[C@@H]1C[C@@H](Nc2ncnc3[nH]ccc23)C12CCOCC2,inhibition,"Concentration 50.0 uM, Number of replicates 2.0, Standard deviation 3.029 %",2.32%
Cc1n[nH]cc1CN(C)C(=O)c1ccc(NC(=O)Nc2ccccc2)cc1,inhibition,"Concentration 49.75 uM, Number of replicates 2.0, Standard deviation 4.474 %",-3.77%
same,inhibition,"Concentration 99.5 uM, Number of replicates 2.0, Standard deviation 2.774 %",-0.031%
O=C(OCc1ccc(Cl)nc1)c1ncnc2[nH]ccc12,inhibition,"Concentration 50.0 uM, Number of replicates 2.0, Standard deviation 1.988 %",6.08%
CO[C@@H]1CCCN(C(=O)c2cnn3ccc(C4CCN(C(=O)c5ccccc5)CC4)cc23)C1,inhibition,"Concentration 49.75 uM, Number of replicates 2.0, Standard deviation 1.69 %",22.6%
same,inhibition,"Concentration 99.5 uM, Number of replicates 2.0, Standard deviation 3.272 %",39.8%
FC(F)(F)c1nnc2n1CCN(c1ncnc3[nH]ccc13)C2,inhibition,"Concentration 49.75 uM, Number of replicates 2.0, Standard deviation 1.459 %",-1.97%
same,inhibition,"Concentration 99.5 uM, Number of replicates 2.0, Standard deviation 0.538 %",-1%
O=C(OCc1cccc(Cl)n1)c1ncnc2[nH]ccc12,inhibition,"Concentration 50.0 uM, Number of replicates 2.0, Standard deviation 4.164 %",11.4%
CCC[C@@](C)(NC(=O)c1ncnc2[nH]ccc12)C(=O)OC,inhibition,"Concentration 50.0 uM, Number of replicates 2.0, Standard deviation 3.705 %",-6.62%
Cc1cc(C(=O)N2CCC(c3ccn4ncc(C(=O)N5CCCCC5)c4c3)CC2)[nH]n1,inhibition,"Concentration 49.75 uM, Number of replicates 2.0, Standard deviation 4.639 %",16.6%
same,inhibition,"Concentration 99.5 uM, Number of replicates 2.0, Standard deviation 3.947 %",31.6%
c1nc(N[C@@H]2CCCc3c2cnn3C2CCCC2)c2cc[nH]c2n1,inhibition,"Concentration 49.75 uM, Number of replicates 2.0, Standard deviation 0.354 %",0.884%
same,inhibition,"Concentration 99.5 uM, Number of replicates 2.0, Standard deviation 0.15 %",14.3%
O=C(Nc1cnc2[nH]ncc2c1)c1ccncc1Cl,inhibition,"Concentration 50.0 uM, Number of replicates 2.0, Standard deviation 1.31 %",-2.75%
same,inhibition,"Concentration 50.0 uM, Number of replicates 2.0, Standard deviation 1.931 %",-0.272%
same,inhibition,"Concentration 100.0 uM, Number of replicates 2.0, Standard deviation 1.828 %",2.96%
O=C(c1cccnc1S)N1CCC(c2ccn3ncc(C(=O)N4CCCCC4)c3c2)CC1,inhibition,"Concentration 49.75 uM, Number of replicates 2.0, Standard deviation 1.032 %",32.3%
same,inhibition,"Concentration 99.5 uM, Number of replicates 2.0, Standard deviation 1.028 %",52.6%
O=C(c1cncc(O)n1)N1CCC(c2ccn3ncc(C(=O)N4CCCCC4)c3c2)CC1,inhibition,"Concentration 49.75 uM, Number of replicates 2.0, Standard deviation 0.648 %",26.6%
same,inhibition,"Concentration 99.5 uM, Number of replicates 2.0, Standard deviation 1.31 %",41.9%
CN(Cc1cn(C)nn1)C(=O)c1ccc(NC(=O)Nc2ccccc2)cc1,inhibition,"Concentration 49.75 uM, Number of replicates 2.0, Standard deviation 0.56 %",0.883%
same,inhibition,"Concentration 99.5 uM, Number of replicates 2.0, Standard deviation 3.63 %",0.566%
O=C(Nc1ccccc1)Nc1ccc(C(=O)N[C@H]2CC[C@H](CO)CC2)cc1,inhibition,"Concentration 49.75 uM, Number of replicates 2.0, Standard deviation 1.388 %",-0.639%
same,inhibition,"Concentration 99.5 uM, Number of replicates 2.0, Standard deviation 3.79 %",-2.58%
CCn1cc(CNc2nc3[nH]cnc3c(=O)[nH]2)nn1,inhibition,"Concentration 50.0 uM, Number of replicates 2.0, Standard deviation 3.758 %",-0.991%
O=C(CCN(Cc1cccc(Cl)c1)C(=O)[C@@H]1CNCC12CC2)N1CCNCC1,inhibition,"Concentration 49.75 uM, Number of replicates 2.0, Standard deviation 4.003 %",4.21%
same,inhibition,"Concentration 99.5 uM, Number of replicates 2.0, Standard deviation 2.443 %",2.38%
CC(C)[C@H]1CN(c2ncnc3[nH]ccc23)[C@H]1C(C)C,inhibition,"Concentration 49.75 uM, Number of replicates 2.0, Standard deviation 1.709 %",0.348%
same,inhibition,"Concentration 99.5 uM, Number of replicates 2.0, Standard deviation 1.351 %",-2.2%
C[C@H](NC(=O)c1ccc(NC(=O)Nc2ccccc2)cc1)c1ccccn1,inhibition,"Concentration 49.75 uM, Number of replicates 2.0, Standard deviation 2.561 %",2.45%
same,inhibition,"Concentration 99.5 uM, Number of replicates 2.0, Standard deviation 6.365 %",0.349%
O=C(Nc1cnc2[nH]ncc2c1)c1ccccc1CN1CCOCC1,inhibition,"Concentration 50.0 uM, Number of replicates 2.0, Standard deviation 2.919 %",-3.24%
CC(C)Cn1cc([C@H]2N(c3ncnc4[nH]ccc34)CC23CCOCC3)cn1,inhibition,"Concentration 49.75 uM, Number of replicates 2.0, Standard deviation 1.28 %",-0.591%
same,inhibition,"Concentration 99.5 uM, Number of replicates 2.0, Standard deviation 6.534 %",-4.66%
O=C(Nc1ccc(O)cc1)Nc1ccc(Oc2ccccc2)cc1,inhibition,"Concentration 50.0 uM, Number of replicates 2.0, Standard deviation 2.274 %",-3.31%
Fc1ccc(F)c(Sc2ncnc3[nH]ccc23)c1,inhibition,"Concentration 50.0 uM, Number of replicates 2.0, Standard deviation 6.588 %",-1.15%
Cc1c(-c2cnc3nc[nH]c(=O)c3c2)ccc2[nH]ncc12,inhibition,"Concentration 49.75 uM, Number of replicates 2.0, Standard deviation 0.542 %",-3.12%
same,inhibition,"Concentration 99.5 uM, Number of replicates 2.0, Standard deviation 2.71 %",-4.36%
O=C(N[C@H]1CCC[C@H]1C(=O)O)c1cnn2ccc(C3CCN(C(=O)c4ccccc4)CC3)cc12,inhibition,"Concentration 49.75 uM, Number of replicates 2.0, Standard deviation 2.492 %",59.6%
same,inhibition,"Concentration 99.5 uM, Number of replicates 2.0, Standard deviation 0.074 %",73.5%
Cc1ccc(O)c(CNc2ncnc3[nH]cnc23)n1,inhibition,"Concentration 50.0 uM, Number of replicates 2.0, Standard deviation 1.123 %",0.262%
same,inhibition,"Concentration 100.0 uM, Number of replicates 2.0, Standard deviation 2.0 %",6.28%
Cc1cccc(OCCNc2ncnc3nc[nH]c23)c1,inhibition,"Concentration 50.0 uM, Number of replicates 2.0, Standard deviation 4.697 %",3.91%
O=S(=O)(Nc1ncccn1)c1ccc2oc3ccccc3c2c1,inhibition,"Concentration 50.0 uM, Number of replicates 2.0, Standard deviation 5.51 %",-3%
CC(C)[C@@H](Nc1ncnc2[nH]ccc12)c1cccs1,inhibition,"Concentration 49.75 uM, Number of replicates 2.0, Standard deviation 1.872 %",84.7%
same,inhibition,"Concentration 99.5 uM, Number of replicates 2.0, Standard deviation 2.645 %",89.9%
NC(=O)c1ncccc1C(=O)N1CCC(c2ccn3ncc(C(=O)N4CCCCC4)c3c2)CC1,inhibition,"Concentration 49.75 uM, Number of replicates 2.0, Standard deviation 4.804 %",20%
same,inhibition,"Concentration 99.5 uM, Number of replicates 2.0, Standard deviation 1.17 %",36%
O=C(c1ccccc1)N1CCC(c2ccn3ncc(C(=O)N4CCc5nc[nH]c5C4)c3c2)CC1,inhibition,"Concentration 49.75 uM, Number of replicates 2.0, Standard deviation 2.532 %",11.2%
same,inhibition,"Concentration 99.5 uM, Number of replicates 2.0, Standard deviation 2.098 %",20.3%
c1nc(N2CC[C@@H](n3cncn3)C2)c2cc[nH]c2n1,inhibition,"Concentration 50.0 uM, Number of replicates 2.0, Standard deviation 1.464 %",-1.54%
NC1(C(=O)N(CCC(=O)N2CCNCC2)Cc2cccc(Cl)c2)CC(F)(F)C1,inhibition,"Concentration 49.75 uM, Number of replicates 2.0, Standard deviation 0.286 %",-3.48%
same,inhibition,"Concentration 99.5 uM, Number of replicates 2.0, Standard deviation 3.805 %",-1.17%
Cc1nn(Cc2ccccc2)c(C)c1CNc1ncnc2[nH]ncc12,inhibition,"Concentration 50.0 uM, Number of replicates 2.0, Standard deviation 2.858 %",-1.75%
O=C(CCN(Cc1cccc(Cl)c1)C(=O)[C@H]1C[C@H](O)C1)N1CCNCC1,inhibition,"Concentration 49.75 uM, Number of replicates 2.0, Standard deviation 2.648 %",-2.13%
same,inhibition,"Concentration 99.5 uM, Number of replicates 2.0, Standard deviation 5.781 %",-3.77%
Cc1ncc(NCc2cc3n(n2)CCOC3)cc1C(N)=O,inhibition,"Concentration 50.0 uM, Number of replicates 2.0, Standard deviation 4.482 %",0.46%
O=C(Nc1ccccc1)Nc1ccc(C(=O)N2CCn3nccc3C2)cc1,inhibition,"Concentration 49.75 uM, Number of replicates 2.0, Standard deviation 2.554 %",-3.11%
same,inhibition,"Concentration 99.5 uM, Number of replicates 2.0, Standard deviation 2.469 %",2.3%
COc1cc(OC)cc(C(=O)N(CCC(=O)N2CCNCC2)Cc2cccc(Cl)c2)c1,inhibition,"Concentration 50.0 uM, Number of replicates 2.0, Standard deviation 1.533 %",-4.53%
